Measured values reported in the supplement of paper PMC12137928.
Structures can show the parent of a compound that is named as a salt.

System: HCT116
Conditions: 72 h
Summary of the method: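 HCT116 cells went into 1536-well plates at 250 per well. CellTiter-Glo luminescence was expressed relative to vehicle (0%) and positive control (-100%) and then pattern-corrected. Both IC50 and maximal efficacy were taken from four-parameter Hill fits.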

| SMILES | IC50 cell viability (ICRF193 0 nM) [µM] | IC50 cell viability (ICRF193 200 nM) [µM] |
| --- | --- | --- |
| CCCN(CCC)CCc1cccc2c1CC(=O)N2 [Ropinirole] | > 45.8 | > 45.8 |
| CN1[C@@H]2CC[C@H]1C[C@@H](OC(=O)[C@H](CO)c1ccccc1)C2 [HYOSCYAMINE] | > 45.8 | > 45.8 |
| Sc1nc2ccccc2s1 [2-Mercaptobenzothiazole] | > 45.8 | > 45.8 |
| Nc1ccccc1C(=O)OCC(O)CO (stereo not given) [Glyceryl 1-(2-aminobenzoate)] | > 45.8 | > 45.8 |
| C[N+](C)(CCCCCC[N+](C)(C)C1c2ccccc2-c2ccccc21)C1c2ccccc2-c2ccccc21 [Hexafluorenium dibromide] | > 45.8 | > 45.8 |
| CCCCOCCOCCOCc1cc2c(cc1CCC)OCO2 [Piperonyl butoxide] | > 45.8 | > 45.8 |
| COCCCOc1ccnc(C[S+]([O-])c2nc3ccccc3[nH]2)c1C (stereo not given) [Rabeprazole] | > 45.8 | > 45.8 |
| COc1ccc(C(=O)N2CCCC2=O)cc1 [Aniracetam] | > 45.8 | > 45.8 |
| NCCC[C@H](N)CC(=O)N[C@H]1CNC(=O)[C@H]([C@H]2C[C@H](O)NC(N)=N2)NC(=O)/C(=C/NC(N)=O)NC(=O)[C@H](CO)NC(=O)[C@H](CO)NC1=O [VIOMYCIN SULFATE] | > 45.8 | > 45.8 |
| CCCC1O[C@@H]2C[C@H]3[C@@H]4CCC5=CC(=O)C=C[C@]5(C)[C@H]4[C@@H](O)C[C@]3(C)[C@]2(C(=O)CO)O1 (stereo not given in full) [Budesonide] | > 45.8 | > 45.8 |
| CS(=O)(=O)OC[C@H](O)[C@@H](O)COS(C)(=O)=O [Treosulfan] | > 45.8 | > 45.8 |
| OCCOCCN1CCN(C2=Nc3ccccc3Sc3ccccc32)CC1 [Quetiapine] | > 45.8 | > 45.8 |
| CCn1cc(C(=O)O)c(=O)c2cnc(N3CCCC3)nc21 [Piromidic acid] | > 45.8 | > 45.8 |
| C[C@]12CC[C@@H]3c4ccc(OC(=O)N(CCCl)CCCl)cc4CC[C@H]3[C@@H]1CC[C@@H]2O [Estramustine] | > 45.8 | > 45.8 |
| CC1(C)O[C@@H]2C[C@H]3[C@@H]4C[C@H](F)C5=CC(=O)C=C[C@]5(C)[C@H]4[C@@H](O)C[C@]3(C)[C@]2(C(=O)CO)O1 [Flunisolide] | > 45.8 | > 45.8 |
